Assays:
Test in all cases: relative viability (nuclei count vs DMSO), 5 days (fraction); higher = more cells survive
[1] = tested on: HCC-15
Outline: (§1)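 For relative viability, nuclei counts in treated wells were divided by those in vehicle wells. Lung cancer cell lines had been pin-tool dosed in 1536-well plates the day after seeding and cultured for 5 days, then fixed and stained in one step (final 0.05% Triton X-100, 1% formaldehyde, 1 ug/ml Hoechst) and imaged at 4×. Doses were one drug alone or a fixed anchor-drug dose plus five library-drug doses (not always all listed) in √10 steps, and values are duplicate-plate medians.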

[2] = tested on: LC-2-ad
Outline: as §1

[3] = tested on: NCI-H2126
Outline: as §1

[4] = tested on: NCI-H1975
Outline: as §1

[5] = tested on: SK-LU-1
Outline: as §1

[6] = tested on: NCI-H522
Outline: as §1

[7] = tested on: NCI-H1915
Outline: as §1

[8] = tested on: LXF-289
Outline: as §1

[9] = tested on: HOP-62
Outline: as §1

[10] = tested on: NCI-H1734
Outline: as §1

[11] = tested on: NCI-H1755
Outline: as §1

[12] = tested on: NCI-H2228
Outline: as §1

[13] = tested on: RERF-LC-KJ
Outline: as §1

[14] = tested on: NCI-H358
Outline: as §1

[15] = tested on: A-427
Outline: as §1

[16] = tested on: PC-3 [JPC-3]
Outline: as §1

[17] = tested on: NCI-H2342
Outline: as §1

[18] = tested on: HCC-78
Outline: as §1

[19] = tested on: NCI-H1792
Outline: as §1

[20] = tested on: NCI-H2347
Outline: as §1

[21] = tested on: NCI-H647
Outline: as §1

[22] = tested on: SW 1573
Outline: as §1

Compound: CC(=O)O[C@@]12CO[C@@H]1C[C@H](O)[C@@]1(C)C(=O)[C@H](O)C3=C(C)[C@@H](OC(=O)[C@H](O)[C@@H](NC(=O)OC(C)(C)C)c4ccccc4)C[C@@](O)([C@@H](OC(=O)c4ccccc4)[C@H]21)C3(C)C [Docetaxel] + Cc1nc(Nc2ncc(C(=O)Nc3c(C)cccc3Cl)s2)cc(N2CCN(CCO)CC2)n1 [Dasatinib] (partner 0.075 µM)
- relative viability ([1]; first compound 0.0002 µM): 0.456
- relative viability ([1]; first compound 0.000632 µM): 0.221
- relative viability ([1]; first compound 0.002 µM): 0.16
- relative viability ([1]; first compound 0.006325 µM): 0.21
- relative viability ([1]; first compound 0.02 µM): 0.115
- relative viability ([2]; first compound 0.0002 µM): 0.362
- relative viability ([2]; first compound 0.000632 µM): 0.38
- relative viability ([2]; first compound 0.002 µM): 0.28
- relative viability ([2]; first compound 0.006325 µM): 0.207
- relative viability ([3]; first compound 0.0002 µM): 0.659
- relative viability ([3]; first compound 0.000632 µM): 0.573
- relative viability ([3]; first compound 0.002 µM): 0.363
- relative viability ([3]; first compound 0.006325 µM): 0.339
- relative viability ([4]; first compound 0.0002 µM): 0.377
- relative viability ([4]; first compound 0.000632 µM): 0.284
- relative viability ([4]; first compound 0.002 µM): 0.152
- relative viability ([4]; first compound 0.006325 µM): 0.127
- relative viability ([4]; first compound 0.02 µM): 0.107
- relative viability ([5]; first compound 0.0002 µM): 0.175
- relative viability ([5]; first compound 0.000632 µM): 0.156
- relative viability ([5]; first compound 0.006325 µM): 0.122
- relative viability ([5]; first compound 0.02 µM): 0.132
- relative viability ([6]; first compound 0.0002 µM): 0.712
- relative viability ([6]; first compound 0.000632 µM): 0.866
- relative viability ([6]; first compound 0.002 µM): 0.649
- relative viability ([6]; first compound 0.006325 µM): 0.672
- relative viability ([6]; first compound 0.02 µM): 0.49
- relative viability ([7]; first compound 0.0002 µM): 0.304
- relative viability ([7]; first compound 0.000632 µM): 0.331
- relative viability ([7]; first compound 0.002 µM): 0.228
- relative viability ([7]; first compound 0.006325 µM): 0.153
- relative viability ([7]; first compound 0.02 µM): 0.0717
- relative viability ([8]; first compound 0.0002 µM): 0.181
- relative viability ([8]; first compound 0.000632 µM): 0.154
- relative viability ([8]; first compound 0.002 µM): 0.0677
- relative viability ([8]; first compound 0.006325 µM): 0.0536
- relative viability ([8]; first compound 0.02 µM): 0.0314
- relative viability ([9]; first compound 0.0002 µM): 0.56
- relative viability ([9]; first compound 0.000632 µM): 0.58
- relative viability ([9]; first compound 0.002 µM): 0.309
- relative viability ([9]; first compound 0.02 µM): 0.155
- relative viability ([10]; first compound 0.0002 µM): 0.46
- relative viability ([10]; first compound 0.000632 µM): 0.286
- relative viability ([10]; first compound 0.002 µM): 0.234
- relative viability ([10]; first compound 0.006325 µM): 0.239
- relative viability ([10]; first compound 0.02 µM): 0.163
- relative viability ([11]; first compound 0.0002 µM): 0.385
- relative viability ([11]; first compound 0.000632 µM): 0.359
- relative viability ([11]; first compound 0.002 µM): 0.306
- relative viability ([11]; first compound 0.006325 µM): 0.286
- relative viability ([11]; first compound 0.02 µM): 0.222
- relative viability ([12]; first compound 0.0002 µM): 0.429
- relative viability ([12]; first compound 0.000632 µM): 0.151
- relative viability ([12]; first compound 0.002 µM): 0.12
- relative viability ([12]; first compound 0.006325 µM): 0.146
- relative viability ([12]; first compound 0.02 µM): 0.0836
- relative viability ([13]; first compound 0.0002 µM): 0.754
- relative viability ([13]; first compound 0.000632 µM): 0.586
- relative viability ([13]; first compound 0.002 µM): 0.295
- relative viability ([13]; first compound 0.006325 µM): 0.264
- relative viability ([13]; first compound 0.02 µM): 0.155
- relative viability ([14]; first compound 0.0002 µM): 0.159
- relative viability ([14]; first compound 0.000632 µM): 0.179
- relative viability ([14]; first compound 0.006325 µM): 0.111
- relative viability ([14]; first compound 0.02 µM): 0.0699
- relative viability ([15]; first compound 0.0002 µM): 0.721
- relative viability ([15]; first compound 0.000632 µM): 0.642
- relative viability ([15]; first compound 0.002 µM): 0.445
- relative viability ([15]; first compound 0.006325 µM): 0.154
- relative viability ([15]; first compound 0.02 µM): 0.141
- relative viability ([16]; first compound 0.0002 µM): 0.94
- relative viability ([16]; first compound 0.000632 µM): 0.954
- relative viability ([16]; first compound 0.002 µM): 0.762
- relative viability ([16]; first compound 0.006325 µM): 0.339
- relative viability ([16]; first compound 0.02 µM): 0.16
- relative viability ([17]; first compound 0.0002 µM): 0.309
- relative viability ([17]; first compound 0.000632 µM): 0.326
- relative viability ([17]; first compound 0.002 µM): 0.308
- relative viability ([17]; first compound 0.006325 µM): 0.285
- relative viability ([17]; first compound 0.02 µM): 0.265
- relative viability ([18]; first compound 0.0002 µM): 0.352
- relative viability ([18]; first compound 0.000632 µM): 0.3
- relative viability ([18]; first compound 0.002 µM): 0.235
- relative viability ([18]; first compound 0.006325 µM): 0.248
- relative viability ([18]; first compound 0.02 µM): 0.3
- relative viability ([19]; first compound 0.0002 µM): 0.796
- relative viability ([19]; first compound 0.000632 µM): 0.707
- relative viability ([19]; first compound 0.002 µM): 0.648
- relative viability ([19]; first compound 0.006325 µM): 0.482
- relative viability ([19]; first compound 0.02 µM): 0.22
- relative viability ([20]; first compound 0.0002 µM): 0.336
- relative viability ([20]; first compound 0.000632 µM): 0.326
- relative viability ([20]; first compound 0.002 µM): 0.242
- relative viability ([20]; first compound 0.006325 µM): 0.23
- relative viability ([20]; first compound 0.02 µM): 0.241
- relative viability ([21]; first compound 0.0002 µM): 0.137
- relative viability ([21]; first compound 0.000632 µM): 0.132
- relative viability ([21]; first compound 0.002 µM): 0.0799
- relative viability ([21]; first compound 0.006325 µM): 0.0795
- relative viability ([21]; first compound 0.02 µM): 0.0407
- relative viability ([22]; first compound 0.0002 µM): 0.307
- relative viability ([22]; first compound 0.000632 µM): 0.19
- relative viability ([22]; first compound 0.002 µM): 0.122
- relative viability ([22]; first compound 0.02 µM): 0.0658

Source: the supplement of paper PMC10307832
